Data published in patent publication US8389509B2, “Substituted pyrazole compounds” (Bristol-Myers Squibb Company, priority 2009, dated 2013).

Legend:
S1P3 = S1P3 (Homo sapiens, UniProt Q99500); test: Method B: Receptor [35S] GTPγS SPA Binding Assay, S1P3; type: biochemical; parameters: expressed in transfected cells; host or cells: CHO cells; details: S1P3 transfected CHO cell membranes
Experimental: Method B: Receptor [^35S] GTPγS SPA Binding Assays
Membranes prepared from S1P1 or S1P3 transfected CHO cells (2 μg protein) were incubated in 96-well white plates (CORNING® 3693) with test compounds diluted in DMSO, in 50 μl of reaction mixture containing 7.5 μA WGA-PVT beads (20 mg/ml), and 5 μM GDP, 20 mM HEPES pH 7.4, 100 mM NaCl, 1 mM EDTA, 5 mM MgCl2, 10 μg/ml saponin, 0.1% BSA, and 1 μM leupeptin. The assay was initiated with the addition of […] of 0.2 nM [^35S]-GTPγS (1250 Ci/mmol; NEN) in assay buffer. After 90 min incubation at room temperature, spin the plate at 1000 rpm for 5 min. The bound radionuclides were measured at TOPCOUNT®, expressed as % response relative to S1P (1 μM) activation. Data was analyzed using the four parameter logistic equation in Excel. The four parameters in the equation, Y=A+((B−A)/(1+((EC50/X)^D))), are described as following: A is the Y value (agonist activity) at the bottom plateau; B is the Y value at the top plateau; EC50 is the X value (agonist concentration) when the response is halfway between bottom and top; D is Hill coefficient. Curves were not generated for compounds having Ymax values were below 50%.
Compounds of the present invention and Comparative Compound A were tested in the Receptor [^35S] GTPγS Binding Assays (Method A) and Receptor [^35S] In some instances, the value is an average of multiple experiments where N is the number of experiments conducted that provided satisfactory dose response curves. When more than one batch of an example was tested, the value presented is from a batch which allowed a comparison of GTPγS S1P1 and GTPγS S1P3 in which the most number of experiments were performed. Preferably, the same batch was examined in Method A and Method B. Data was not averaged across different batches of an example compound.

S1P1 = target: T1, S1P1 (Homo sapiens, UniProt P21453); test: S1P1 Binding Assay (33P-S1P competition, CHO membranes); details: membranes of CHO cells expressing human S1P1, 33P-S1P ligand; read-out: S1P1 B IC50
T1 construct: expressed in transfected cells; host or cells: CHO cells
Experimental: Membranes were prepared from CHO cells expressing human S1P1. Cells were dissociated in buffer containing 20 mM HEPES, pH 7.5, 50 mM NaCl, 2 mM EDTA and Protease Inhibitor cocktail (Roche), and disrupted on ice using the Polytron homogenizer. The homogenate was centrifuged at 20,000 rpm (48,000 g) and the supernatant was discarded. The membrane pellets were resuspended in buffer containing 50 mM HEPES, pH 7.5, 100 mM NaCl, 1 mM MgCl2, 2 mM EDTA and stored in aliquots at −80° C. after protein concentration determination.
Membranes (2 μg/well) and 0.03 nM final concentration of ^33P-S1P ligand (1 mCi/ml, American Radiolabeled Chemicals) were added to the compound plates. Binding was performed for 60 min at room temperature, terminated by collecting the membranes onto GF/B filter plates, and radioactivity was measured by TOPCOUNT®. The competition data of the test compounds over a range of concentrations was plotted as percentage inhibition of radioligand specific binding. The IC50 is defined as the concentration of competing ligand needed to reduce specific binding by 50%.
Compounds of the present invention and Comparative Compound A were tested in the S1P1 binding assay described hereinabove and the results rounded to two digits, shown in Table A were obtained. In some instances, the value is an average of multiple experiments where N is the number of experiments conducted that provided satisfactory dose response curves. When more than one batch of an example was tested, the value presented is from the batch which allowed a comparison of GTPγS S1P1 and GTPγS S1P3 in Method A (Data shown in Table B). Data was not averaged across different batches of an example compound.

Lewis rats = test: Rat Adjuvant Induced Arthritis Assay (AA); type: in vivo; details: for Paw Swelling (mL) on Day 20, Mean: vehicle mean 2.11
Experimental: Rat Adjuvant Induced Arthritis Assay (AA)
Male Lewis rats (150-175 g; Harlan, n=8 treatment group) were immunized at the base of the tail with 100 μl of 10 mg/ml freshly ground Mycobacterium butyricum (Difco Laboratories) in incomplete Freund's adjuvant (sigma). Animals were dosed once daily with the test article (as a solution or suspension in the vehicle) or vehicle alone (polyethylene glycol 300, “PEG300”) starting from the day of immunization. The volumes of their hind paws were measured in a water displacement plethysmometer (Ugo Basile, Italy). The baseline paw measurements were taken before onset of the disease (between day 7 to day 10). The paw measurements were then taken three times a week until the end of the study on day 20 to 21. All procedures involving animals were reviewed and approved by the Institutional Animal Care Use Committee.
Compounds of the present invention were tested in the Rat Adjuvant Induced Arthritis assay described hereinabove and the results are shown in Table F and Table G.

T1 sequence (P21453 whole entry): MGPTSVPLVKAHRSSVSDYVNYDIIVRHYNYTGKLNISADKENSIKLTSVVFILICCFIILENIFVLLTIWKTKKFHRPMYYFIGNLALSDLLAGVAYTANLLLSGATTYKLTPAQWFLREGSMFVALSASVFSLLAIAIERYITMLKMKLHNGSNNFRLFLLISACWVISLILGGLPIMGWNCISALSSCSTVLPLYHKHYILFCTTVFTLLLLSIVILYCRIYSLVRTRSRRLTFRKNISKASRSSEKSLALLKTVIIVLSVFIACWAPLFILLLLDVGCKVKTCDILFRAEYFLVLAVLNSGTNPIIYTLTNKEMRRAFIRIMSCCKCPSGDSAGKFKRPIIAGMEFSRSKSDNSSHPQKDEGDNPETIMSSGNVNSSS
Chain of S1P3 (Q99500 whole entry): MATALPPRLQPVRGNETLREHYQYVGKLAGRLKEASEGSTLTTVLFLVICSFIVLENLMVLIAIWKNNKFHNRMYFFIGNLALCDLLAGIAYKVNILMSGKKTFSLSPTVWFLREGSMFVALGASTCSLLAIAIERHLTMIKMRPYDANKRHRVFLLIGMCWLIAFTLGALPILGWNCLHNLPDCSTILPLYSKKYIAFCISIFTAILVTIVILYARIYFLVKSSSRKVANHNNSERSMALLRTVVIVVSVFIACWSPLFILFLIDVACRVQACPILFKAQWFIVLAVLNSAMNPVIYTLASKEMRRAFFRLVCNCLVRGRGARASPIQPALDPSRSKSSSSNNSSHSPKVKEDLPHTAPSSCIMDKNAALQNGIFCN

In the case of `O=C(O)C1CN(Cc2ccc(-c3noc(-c4cnn(-c5ccccn5)c4C(F)(F)F)n3)cc2)C1` [Example 1, 1-(4-(5-(1-(Pyridin-2-yl)-5-(trifluoromethyl)-1H-pyrazol-4-yl)-1,2,4-oxadiazol-3-yl)benzyl)azetidine-3-carboxylic acid], the EC50 (S1P3) is reported as 4.4 µM, the IC50 (S1P1) is reported as 0.0004 µM and the “Paw Swelling (mL) on Day 20, Mean” value (Lewis rats; 1.0 mg/kg once daily) is reported as 2.36 mL. For the same molecule, the “Paw Swelling (mL) on Day 20, Mean” value (Lewis rats; 3.0 mg/kg once daily) was 1.45 mL, the “Paw Swelling (mL) on Day 20, Mean” value (Lewis rats; 6.0 mg/kg once daily) was 0.17 mL and the “Paw Swelling (mL) on Day 20, Mean” value (Lewis rats; 10.0 mg/kg once daily) was 0.12 mL. For the same molecule, the “disease progression as measured by paw swelling” value (Lewis rats; Lewis rat, prophylactic oral dosing) was “inhibit disease progression”.
